Results from publication PMC5747257 (Bioorganic & medicinal chemistry letters, 2017).

How the values were obtained:
[1] = tested on: HDAC isoforms; conditions: cited from earlier work; for isoform selectivity: prior work
[2] = tested on: HeLa cell lysates as the source of all HDAC proteins; assay: Global HDAC inhibition with HeLa cell lysates; format: biochemical; conditions: mean and standard error of at least three independent trials
[3] = biological target: T1, HDAC6 (Homo sapiens, UniProt Q9UBN7); assay: ELISA-based HDAC activity assay, HDAC6; format: biochemical; conditions: from IC50 values (Tables 2 and S6)
T1 sequence (Q9UBN7 1-1215): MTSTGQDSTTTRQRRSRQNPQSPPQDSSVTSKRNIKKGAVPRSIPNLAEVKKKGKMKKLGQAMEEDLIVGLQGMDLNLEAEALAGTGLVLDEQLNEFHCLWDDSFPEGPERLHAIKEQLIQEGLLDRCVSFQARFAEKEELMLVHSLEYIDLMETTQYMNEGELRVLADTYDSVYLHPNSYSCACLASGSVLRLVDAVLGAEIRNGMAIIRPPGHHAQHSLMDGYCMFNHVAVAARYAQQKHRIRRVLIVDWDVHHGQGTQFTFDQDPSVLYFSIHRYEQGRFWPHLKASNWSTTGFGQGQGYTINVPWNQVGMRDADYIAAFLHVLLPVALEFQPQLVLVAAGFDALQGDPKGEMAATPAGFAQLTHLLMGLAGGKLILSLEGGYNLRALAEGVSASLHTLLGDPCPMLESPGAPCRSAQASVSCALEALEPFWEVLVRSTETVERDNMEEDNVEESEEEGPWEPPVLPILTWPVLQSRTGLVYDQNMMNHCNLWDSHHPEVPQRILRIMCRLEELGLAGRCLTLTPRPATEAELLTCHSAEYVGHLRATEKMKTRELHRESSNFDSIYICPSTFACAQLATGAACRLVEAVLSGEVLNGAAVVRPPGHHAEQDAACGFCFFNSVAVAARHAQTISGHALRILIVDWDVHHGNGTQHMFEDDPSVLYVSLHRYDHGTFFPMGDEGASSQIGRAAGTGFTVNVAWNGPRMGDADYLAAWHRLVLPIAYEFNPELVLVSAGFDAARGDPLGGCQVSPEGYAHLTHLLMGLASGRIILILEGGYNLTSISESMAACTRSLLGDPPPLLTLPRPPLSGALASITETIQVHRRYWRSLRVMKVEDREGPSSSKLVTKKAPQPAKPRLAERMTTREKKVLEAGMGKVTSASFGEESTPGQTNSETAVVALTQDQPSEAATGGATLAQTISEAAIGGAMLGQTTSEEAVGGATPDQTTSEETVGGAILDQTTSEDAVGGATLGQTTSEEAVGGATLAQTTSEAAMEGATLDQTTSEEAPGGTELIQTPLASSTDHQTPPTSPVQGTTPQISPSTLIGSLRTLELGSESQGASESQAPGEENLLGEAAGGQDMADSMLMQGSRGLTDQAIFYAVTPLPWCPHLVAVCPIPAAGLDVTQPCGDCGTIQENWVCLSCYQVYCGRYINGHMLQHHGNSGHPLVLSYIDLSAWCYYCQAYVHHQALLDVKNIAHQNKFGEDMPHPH

[4] = tested on: Class I HDAC (HDAC1, 2, and 3) (substrate acetyl-histone 3, AcH3); assay: In cellulo selectivity, western blot of acetyl-histone H3 in U937 cells; format: cell-based; conditions: SAHA 5 µM, 1e 10–40 µM, compared to DMSO control
[5] = tested on: HDAC6 (substrate acetyl-α-tubulin, AcTub); assay: In cellulo selectivity, western blot of acetyl-α-tubulin in U937 cells; format: cell-based; conditions: SAHA 5 µM, 1e 10–40 µM, compared to DMSO control

**Q.** What does the source list for CCCCCCC(CCCCCC(=O)Nc1ccccc1)C(=O)NO (stereo not shown) [C2-hexyl SAHA]?
**A.** selectivity for HDAC6 and 8 over HDAC1, 2, and 3 ([1]; previously reported): 49- to 300 fold; isoform selectivity [1]: dual HDAC6/8 selectivity; IC50 ([1]; read-out: IC50 values against HDAC6 and 8, previously reported): 0.6 to 2 µM

**Q.** With CCC(CCCCC(=O)Nc1ccccc1)CC(=O)NO (stereo not shown) [C3-ethyl SAHA] as the compound, how does the isoform selectivity [1] read?
**A.** The isoform selectivity was “HDAC6 selectivity”.

**Q.** Which isoform selectivity [1] does the source give for CCCCC(CCCCC(=O)NO)CC(=O)Nc1ccccc1 (stereo not shown) [C6-butyl SAHA] here?
**A.** Its isoform selectivity is “inhibited HDAC1 and 6 over HDAC3”.

**Q.** For CC(CCCC(=O)NO)CCC(=O)Nc1ccccc1 (stereo not shown) [Compound 1a, C5-methyl SAHA], which IC50 [2] is on record?
**A.** The IC50 was 0.1 ± 0.01 µM.

**Q.** Which “selectivity for HDAC6 and HDAC8 over HDAC1, 2, and 3” value [3] does the source give for CCCCC(CCCC(=O)NO)CCC(=O)Nc1ccccc1 (stereo not shown) [Compound 1b, C5-n-butyl SAHA] here?
**A.** Its value is 3- to 5 fold.

**Q.** For CCCCCCC(CCCC(=O)NO)CCC(=O)Nc1ccccc1 (stereo not shown) [Compound 1c, C5-n-hexyl SAHA], which “selectivity for HDAC6 and HDAC8 over HDAC1, 2, and 3” value [3] is on record?
**A.** Its value is 5- to 7 fold.

**Q.** Which “levels of acetyl-histone H3 (AcH3)” value [4] does the source give for O=C(CCCC(CCC(=O)Nc1ccccc1)Cc1ccccc1)NO (stereo not shown) [Compound 1e, C5-benzyl SAHA] here?
**A.** The value was “increased levels”.

**Q.** And the “levels of acetyl-α-tubulin (AcTub)” value [5]?
**A.** Its value is “dose dependent selective increase”.
